In article PMC5514404 (EBioMedicine, 2017):

Assays:
[1] = test system: HIV-1 replication; settings: ref Ewart et al., 2004; cited from earlier work
[2] = test system: HIV-1BRU infectivity in primary CD4 + lymphocytes; format: cell-based; settings: p24 at 72 h, P < 0.01
[3] = test system: rat Na^+,K^+-ATPase α1 (interaction with Tat); experiment: Co-immunoprecipitation of Tat with transfected rat Na^+,K^+-ATPase α1; settings: HEK293T transfected with rat α1 constructs and Tat86-TK / Tat11-TK
[4] = test system: wt HIV-1BRU production by HEK293T cells; format: cell-based; settings: p24 ELISA; ouabain; P<0.01 over untreated
[5] = test system: extracellular HIV-1 Tat release from HEK293T cells; experiment: HIV-1 Tat secretion assay; format: cell-based, human
[6] = test system: VSV-G-pseudotyped HIV-1NL4.3E-R-Luc infection of Jurkat cells; format: cell-based
[7] = test system: HEK293T cells; settings: ouabain 15 h
[8] = test system: HIV-1 LTR transactivation in HL3T1 cells by supernatants of Tat86-transfected HEK293T cells; experiment: Transcellular transactivation assay; format: cell-based; settings: ouabain 25 μM, 4 h; HL3T1 24 h; CAT ELISA
[9] = test system: HIV-1BRU infectivity in Jurkat cells; format: cell-based; settings: P < 0.01
[10] = test system: VSV-G-pseudotyped HIV-1NL4.3E-R-Luc infectivity in Jurkat cells; format: cell-based
[11] = test system: Na^+,K^+-ATPase α1 subunit (interaction with Tat); experiment: Co-immunoprecipitation of Tat with endogenous Na^+,K^+-ATPase α1 subunit; format: cell-based, human; settings: HEK293T, Tat86 transfected; ouabain 25 μM, 4 h
[12] = test system: rat Na^+,K^+-ATPase; settings: ref Emanuel et al., 1988; cited from earlier work
[13] = test system: VSV-G pseudotyped HIV-1NL4.3E-R-Luc production by HEK293T cells; format: cell-based
[14] = molecular target: Tat86 used in surface plasmon resonance (HIV-1 (strain HXB2), UniProt P04608 1-86); experiment: SPR

## CCN(c1nc(N)c(C(=O)NC(=N)N)nc1Cl)C(C)C [EIPA, 5-(N-ethyl-N-isopropyl)amiloride]
[1]
  effect on HIV-1 replication: known to limit HIV-1 replication

## C[C@@H]1O[C@@H](O[C@H]2C[C@@H](O)[C@]3(CO)[C@H]4[C@H](O)C[C@]5(C)[C@@H](C6=CC(=O)OC6)CC[C@]5(O)[C@@H]4CC[C@]3(O)C2)[C@H](O)[C@H](O)[C@H]1O [ouabain]
[2]
  infectivity of HIV-1BRU produced in presence of ouabain: markedly less infectious
[3]
  co-immunoprecipitation with Tat / ouabain effect, rat α1: binding is not sensitive to ouabain
[4]
  production of wt HIV-1BRU virions: The same was also observed for wt HIV-1BRU virions
[5]; protein levels in whole cell extracts, ouabain 25 μM
  effect on Tat protein production: did not affect Tat protein production
[6]
  effect of ouabain present at infection on virions produced without ouabain: unaffected by the presence of the drug
[7]
  cell toxicity during virus production: did not exert significant cell toxicity
[8]
  effect of ouabain on transcellular transactivation: blocked transcellular transactivation
[9]
  viral integration (Alu-PCR) by HIV-1BRU produced in presence of ouabain: reduced viral integration
[9]; p24 at 72 h
  infectivity of HIV-1BRU produced in presence of ouabain: markedly less infectious
[10]
  infectivity of virions produced in presence of ouabain: markedly less infectious
  viral integration (Alu-PCR) by virions produced in presence of ouabain: reduced viral integration
[11]
  effect on Tat-α1 co-immunoprecipitation (endogenous α1): abolished this interaction
[12]
  sensitivity of rat Na^+,K^+-ATPase enzyme to ouabain: insensitive to ouabain
[13]
  production of VSV-G pseudotyped virions: significantly decreased the production of VSV-G pseudotyped virions

## heparin
[5]; HEK293T, soluble heparin 25 μM
  amount of free Tat-TK protein in the supernatant: increased

B1: PMIX, equimolar mixture of the individual P1, P2 and P3 peptides (other, rat)
peptide 1: YEQAESDIMKRQPRNPKTDK
peptide 2: TRRNSVFQQGMKN
peptide 3: LIIRRRPGGWVEKETYY
[14]
  IC50: 0.5 µM

## TRRNSVFQQGMKN (peptide, UniProt P06685 939-951, looked up) [synthetic P2 peptide]
[14]
  IC50: 10 µM
